In brackets after ≈: the same amount, converted by molar mass.
Columns and labels:
HT-29 = assay: Cytotoxicity against human HT-29 cells; type: functional, cell-based
A549 = assay: Cytotoxicity against human A549 cells; type: functional, cell-based
[1] = Cytotoxicity against human MEL28 cells; type: functional, cell-based; details: SK-MEL-28
P388 = assay: Cytotoxicity against mouse P388 cells; type: functional, cell-based
Tubulin = assay: Inhibition of tubulin polymerization (unknown origin) pretreated for 15 mins followed by GTP addition by spectrophotometric method; type: protein-complex assay, Homo sapiens

Compound	IC50 (HT-29)	IC50 (A549)	IC50 [1]	IC50 (P388)	IC50 (Tubulin)
C=C1C[C@@H]2C/C=C/C(=O)C/C(C)=C\C=C\C(=O)O[C@H]([C@H](O)NC(=O)/C=C\C=C\C)C/C(C)=C/[C@H](C1)O2 [ZAMPANOLIDE]	1 to 5 ng/mL (≈ 2.02 to 10.1 nM)	1 to 5 ng/mL (≈ 2.02 to 10.1 nM)	1 to 5 ng/mL (≈ 2.02 to 10.1 nM)	1 to 5 ng/mL (≈ 2.02 to 10.1 nM)	
CC[C@H](C)[C@@H]([C@@H](CC(=O)N1CCC[C@H]1[C@H](OC)[C@@H](C)C(=O)N[C@@H](Cc1ccccc1)c1nccs1)OC)N(C)C(=O)[C@@H](NC(=O)[C@H](C(C)C)N(C)C)C(C)C [DOLASTATIN-10]					1.2 µM
COC1=CC(=O)N(C(=O)[C@@H](OC(=O)[C@@H]2CCCN2C(=O)[C@@H]2CCCN2C(=O)[C@H](C(C)C)N(C)C(=O)[C@@H](NC(=O)[C@H](C(C)C)N(C)C)C(C)C)C(C)C)[C@H]1Cc1ccccc1 [DOLASTATIN 15]					23 µM
